Experimental findings from patent US12174192B2, “Methods for detecting and treating cancers having adenosine pathway activation” (Corvus Pharmaceuticals, Inc., priority 2018, dated 2024) are described below.

In one experiment the test system is IL6 and IL8. Put plainly: Plasma IL6 and IL8 protein levels in RCC patients after CPI-444 treatment. Particulars: RCC patients with reduction in tumor size (best response); after treatment (4 weeks). Format: in vivo, human.
In experiment [1] the test system is adenosine-modulated genes and proteins. Put plainly: Adenosine-induced genes and proteins in tumor biopsies from treated patients. On the set-up: species or system human. Particulars: in vitro and in vivo in tumor biopsies from treated patients. An excerpt: Expression of a subset of genes that are modulated by adenosine levels correlates with tumor regression in the ongoing Ph 1/1b trial with CPI-444 treatment in RCC. […] A2AR agonists induce a specific gene signature dominated by immunosuppressive mediators of MDSC and monocyte/macrophage biology. […] These genes and proteins may identify patients with high levels of adenosine and be used as biomarkers for patient selection to select patients most likely to respond to therapy with agents that antagonize adenosine production or signaling.

Another experiment has as its system A2AR. As to the kind of experiment: In vitro A2AR stimulation gene signature and its inhibition by CPI-444. Particulars: transcript and protein level. The format is cell-based, human. On the procedure:
RNA purified from normal, healthy human peripheral blood mononuclear cells (PBMCs) treated with 5′-N-ethylcarboxamidoadenosine (NECA) and activated with anti-CD3/CD28 antibody were analyzed by NanoString hybridization-based quantification (NanoString Technologies, Inc.). […] Each dot represents the expression level of a specific gene. Dot shade represents the concentration of NECA used and/or different PBMC donors. […] Increases in monocyte/macrophage inflammatory mediators such as IL-1b and CCL2,3,7,8, 20 were also observed, as were increases in SERPINB2, S100A8, PTGS2, THBS1. Expression of CXCL10 and GZMB were decreased, consistent with a suppressed IFNg response. […] A2AR agonists induce a specific gene signature (increase in a certain subset of genes and/or decrease in a second subset of genes) dominated by immunosuppressive mediators of MDSC and monocyte/macrophage biology. Inhibition of these genes by CPI-444 are observed. These gene signatures may be used as biomarkers for patient selection.

The subject of the next experiment is renal tumors (RCC). Put plainly: Change in tumor size in renal cancer patients treated with CPI-444 (Ph 1/1b trial). Format: in vivo, human. On the procedure:
Methods: Tumor biopsies obtained at trial screening from patients with RCC (n=30) were analyzed for gene expression profiles with the Nanostring PanCancer Immune Panel that included 770 markers of immune activity and inflammation. The gene expression correlation (Spearman) matrix was hierarchically clustered (Ward's method) to identify modules of genes that were co-expressed across tumors. Gene expression was normalized to housekeeper genes included in the PanCancer Immune Panel. Gene cluster expression intensity was compared between patients with evaluable best change in tumor size ≤0 (n=8) vs >0 (n=15). The composite gene expression score was calculated as the average of the Log2 of expression values (normalized Nanostring counts) for seven genes (CXCL1, CXCL2, CXCL3, CXCL5, IL1B, IL8, SERPINB2) shown to be induced in vitro in normal peripheral blood mononuclear cells by adenosine. Protein expression was determined from blood (plasma) samples from baseline (untreated) renal cell carcinoma (RCC) patients using MesoScale assay.
Renal cancer patients were treated with CPI-444, and change in tumor size was measured.

The next experiment concerns advanced cancers. Put plainly: Ongoing phase 1/1b trial of CPI-444 monotherapy in patients with advanced cancers. Format: in vivo, human. The text has this: “Adenosine receptor antagonist” refers to a molecule that inhibits activity of adenosine receptors (e.g. A2A or A2B receptors), typically through direct action. Adenosine receptors antagonists can be small or large molecule antagonists. In embodiments, CPI-444 is an example A2A receptor antagonist. […] CPI-444 is described, for example, in PCT Patent Publication No. WO 2017/112917; each of which is incorporated herein by reference in its entirety.

The next experiment deals with PBMCs. Put plainly: CXCL5 protein ELISA in culture supernatants of PBMCs treated with NECA +/- CPI-444. The format is cell-based. Particulars: PBMCs from two human donors; NECA then CPI-444 then anti-CD3/CD28; two days after activation. How it is done: Expression of CXCL5 was determined by ELISA 2 days after activation.
FIGS. 2B and 2C show the response of PBMCs from two different donors to NECA+/−CPI-444 treatment. DMSO was used as vehicle control. […] This control helps establish that the induction of CXCL5 is specific to signaling through adenosine receptors.
NECA activation of CXCL5 protein expression was evaluated. PBMCs were harvested from two different human donors. […] CPI-444 (Corvus Pharmaceuticals) is an antagonist of the adenosine A2A receptor. CXCL5 protein in the culture supernatants was evaluated by ELISA two days after activation. CXCL5 expression is activated by NECA. […] This establishes that the induction of CXCL5 is specific to signaling through adenosine receptors.

“Also recorded” adds a separate entry of the source.

As to `Cc1ccc(-c2nc(N)nc3c2nnn3Cc2cccc(CO[C@H]3CCOC3)n2)o1` [CPI-444, (S)-7-(5-methylfuran-2-yl)-3-((6-(((tetrahydrofuran-3-yl)oxy)methyl)pyridin-2-yl)methyl)-3H-[1,2,3]triazolo[4,5-d]pyrimidin-5-amine], in the experiment on IL6 and IL8, the “IL6 and IL8 levels in blood plasma after treatment” value is “reduced; also recorded: decreased”. The “adenosine agonist-induced genes and proteins, effect of CPI-444” value in experiment [1] is “Inhibition of these genes and proteins”. Moreover, the “A2AR stimulation-induced gene expression changes, effect of CPI-444” value in the experiment on A2AR is “inhibited these changes”. The “response to CPI-444 monotherapy, patients with high CD68 or high CD163 gene levels in the tumors” value in the experiment on renal tumors (RCC) (RCC patients, vs low levels of CD68 or CD163) is “more likely to respond”. Moreover, the “tumor regression with CPI-444, patients with high expression of adenosine-modulated gene subset” value in the experiment with renal tumors (RCC) (ongoing Ph 1/1b trial, RCC, vs patients with low expression) was “more likely to have tumor regression”. For the same compound, in the experiment on renal tumors (RCC) (patients with RCC, two subjects), the “reduction in tumor size (best overall change) after CPI-444 treatment” value is “greater than 30%”. Moreover, in the experiment with renal tumors (RCC) (renal cancer patients), the “change in tumor size after CPI-444 treatment, tumors with low composite gene expression score” value is recorded as “tumor regression was not observed”; the “response to CPI-444, patients with high CCL20 and low CX3CL1 plasma protein levels” value is recorded as “more likely to respond”. Further, in the experiment with renal tumors (RCC) (renal cancer patients, four patients), the “change in tumor size after CPI-444 treatment, tumors with high composite gene expression score” value was “reduction in tumor size”. For the same compound, in the experiment on advanced cancers, the “anti-tumor activity as a monotherapy” value is reported as “demonstrated anti-tumor activity”. In the experiment with PBMCs, the “NECA-induced increase in CXCL5 protein (ELISA), effect of added CPI-444” value was “blocked”.
